From a melting point compilation (Tetko et al.; mined from patent text by program, amines drawn as free bases though some values may be those of a salt)

Row | melting point [°C] | Compound
1 | 119 to 120 | COc1ccc(C=CC(=O)c2c(OC)cc(OC)cc2OC(=O)c2ccc(OC)cc2OC)cc1
2 | 221 to 224 | COc1cc(CNc2nc(N)n3nc(-c4ccco4)nc3n2)cc(OC)c1OC
3 | 60 | COC(=O)c1ccc(OCCCCCCCc2cc(C)no2)cc1
4 | 56 | CC(C)(C)[Si](Oc1ccc(Br)cc1)(c1ccccc1)c1ccccc1
5 | 257 to 261 | CC1NC(=O)NN=C1c1ccccc1O (stereo unspecified)
6 | 250 to 251 | Cc1cccc(C(=O)NN2NC=CC2C(=O)NCC(O)c2ccc(C(F)(F)F)cc2)n1 (stereo unspecified)
7 | 143 to 144 | COc1ccc(Cn2c(O)nc3c(-c4ccco4)ncnc32)cc1
8 | 65 to 66 | COCC1CN(c2cccnc2)C(=O)O1 (racemic)
9 | 227 | COc1ccccc1C1(O[Si](C)(C)C)C(=O)Nc2cc(C)c(Cl)cc21 (stereo unspecified)
10 | 140 to 142 | O=C1c2ccccc2-c2cc(Nc3nc(Nc4ccc5c(c4)-c4ccccc4C5=O)nc(-c4cccn4Cc4ccccc4)n3)ccc21
11 | 209 to 210 | Cc1[nH]c(=O)sc1C(=O)c1ccc(F)cc1
12 | 124 to 126 | Cc1c(F)c(N2CCC(N)C2)c(Cl)c2c1c(=O)c(C(=O)O)cn2C1CC1 (stereo unspecified)
13 | 119 to 120 | CCOC(=O)C1=C(CCl)NC(C)=C(C(=O)OC)C1c1cccc([N+](=O)[O-])c1 (stereo unspecified)
14 | 224 to 225 | O=C(Nc1cccc2c(=O)cc(C(=O)O)oc12)c1cc(Cl)c2c(c1)CC(CCCc1ccccc1)O2 (stereo unspecified)
15 | 148 to 161 | Cc1noc2cc(OC3SCC(O)C(O)C3O)ccc12 (stereo unspecified)
16 | 99 to 100 | O=C(CCCN1CCCC1)NC(Cc1c[nH]c2ccccc12)C(=O)CCc1cc(C(F)(F)F)cc(C(F)(F)F)c1 (stereo unspecified)
17 | 49 to 51 | CCCOC(=O)C(C)Oc1ccc(Oc2cnc3cc(F)ccc3n2)cc1F (stereo unspecified)
18 | 139 to 140 | Cn1cc2c(C#CCO)cccc2n1
19 | 201 | CCCCCCCCCN1C(=O)c2ccc3c4cccc5cccc(c6ccc(c2c36)C1=O)c54
20 | 158 to 159 | CC(C)(C)c1cc(C(c2cc(C(C)(C)C)c(O)c(C(C)(C)C)c2)c2ccco2)cc(C(C)(C)C)c1O
21 | 162 to 163 | FC(F)(F)c1ccc(-c2ccnc(Nc3ccccc3)n2)cc1
22 | 85 to 86.5 | CC(=O)c1cc(CNS(C)(=O)=O)ccc1O
23 | 144 to 145 | Cc1nc(N2CCN(CC3CC3)C2=O)sc1C(=O)NCc1cncc(F)c1
24 | 75 to 76 | O=C1C(O)OCN1c1cccc(C(F)(F)F)c1 (stereo unspecified)

Row | melting point [°C] | Compound
25 | 222 to 224 | N#CC1=C(C#N)NC(c2ccccc2)C(O)=N1 (stereo unspecified)
26 | 88 to 91 | CN(Cc1cccs1)C(=O)C12CC3CC(CC(O)(C3)C1)C2
27 | 78 to 80 | COC(=O)CC(C)N=c1sc2ccccc2s1 (stereo unspecified)
28 | 86 to 92 | O=C(O)CCCCCCC(O)C(=O)O (stereo unspecified)
29 | 281 to 283 | CC1(C)CC2(NC(=O)NC2=O)c2cc(Cl)ccc2O1 (stereo unspecified)
30 | 150 to 153 | CCN1c2ccc(C)cc2C2CN(CCCC(=O)c3ccc(F)cc3)CCC21 (stereo unspecified)
31 | 213 | Nc1nc(-c2ccccc2)c2cc(Cl)cc(Cl)c2n1
32 | 200 to 201 | CC(C)(C)N1C(=O)C(=O)N(c2ccc(C#N)cc2)C1=S
33 | 188 to 189 | Cc1cc(S(=O)(=O)N2CCCCC2)c(O)c2c1CCC2=O
34 | 95 to 96 | O=C(Cn1ccnc1)N1CCC(Oc2c(F)c(F)c(F)c(F)c2F)CC1
35 | 132 to 134 | COc1ccc(-n2nc(C(=O)CCCO[N+](=O)[O-])cc2-c2ccc(S(C)(=O)=O)cc2)cc1
36 | 250 | Cc1csc2nc(-c3ccc(C(=O)O)cc3)nc(Cc3ccc4c(c3)OCO4)c12
37 | 231 | O=C(N[C@H]1CC[C@H](CCN2CCN(c3nccc4c3OCC4)CC2)CC1)c1ccc(N2CCOCC2)nc1
38 | 88 to 89 | COC(=O)c1ccc(COc2cc(F)cc(C3(OC)CCOCC3)c2)cc1
39 | 151 to 152 | O=C(CO)NCc1ccc2ccn(C3CCN(CCc4ccccc4F)CC3)c2c1
40 | 280 to 287 | CC(C)c1ccc2nc3ccc(C(=O)O)cn3c(=O)c2c1
41 | 234 to 236 | CNC(=O)c1ccc(-c2ccc(NC(=O)NCc3cccnc3)cc2)nc1N
42 | > 300 | Cc1nc(S)c2[nH]cnc2n1
43 | 175 | O=C(CCCl)NC(=O)Nc1cc(C(F)(F)F)cc(C(F)(F)F)c1
44 | 115 to 118 | COC1OC(=O)c2cccc([N+](=O)[O-])c21 (stereo unspecified)
45 | 135 to 136 | COC(=O)c1nccnc1Nc1ccc(Cl)cc1
46 | 216 to 218 | Nc1cc(C(=O)O)cc(OCc2ccccc2)c1C(=O)c1ccccc1
47 | 157 to 159 | O=[N+]([O-])c1cn2c(n1)O[C@@H](COc1ccc3nc(N4CCN(Cc5ccc(OC(F)(F)F)cc5)CC4)sc3c1)CC2
48 | 78 to 80 | Cc1cc(N2CCN(CCOc3ccccc3)C2=O)sc1C(=O)NCc1cccnc1

Row | melting point [°C] | Compound
49 | 130 to 131 | CCOC(=O)/C=C/c1ccccc1C1C(C(=O)OCC)=C(C)NC(C)=C1C(=O)OCC
50 | 86 | [N-]=[N+]=NCC(O)c1cc(S(N)(=O)=O)ccc1F (stereo unspecified)
51 | 237 to 238 | Cn1c(=O)[nH]c2ccc(Br)cc21
52 | 103 | COc1cc2c(cc1OC)C(C)CC(N)C(=O)N2 (stereo unspecified)
53 | 123 to 125 | O=C(NCCCn1ccnc1)Nc1ccc(Cl)cc1
54 | 133 | Clc1cc2ccccc2c(N2CCSCC2)n1
55 | 247 to 248 | N#CCc1cc2c(-c3ccccc3)c(CC(=O)Nc3ccc(Cl)cc3C(F)(F)F)c(=O)oc2cc1Cl
56 | 228 to 230 | CC(C)Cn1c(CN)c(-c2ccccc2)c2cc(/C=C/C(N)=O)ccc2c1=O
57 | 206 to 208 | CN(C)Cc1nnc(CN2C(=O)c3ccccc3C2=O)n1-c1ccc(Cl)cc1C(=O)c1ccccc1
58 | 85 to 90 | COC(=O)CCCc1cc2nc(Cl)ccc2n1S(=O)(=O)c1ccc2nc(N)sc2c1
59 | 207 to 208 | CC1(C)CCC(C)(C)c2cc3cc(-c4csc(C(=O)O)c4)ccc3cc21
60 | 143 | O=C(C1CCCN1)N1CCN(c2nc(N3CCCC3)nc(N3CCCC3)n2)CC1 (stereo unspecified)
61 | 131 to 133 | COC(=O)CCCC#Cc1cc(Cl)ccc1NS(=O)(=O)c1ccc2c(c1)OCCN2C
62 | > 300 | O=[N+]([O-])c1cc(-c2nc3ccccc3[nH]2)cc(O)c1O
63 | 246 to 247 | O=C(Nc1cccc2c(CO)c(Br)cnc12)c1c(Cl)cccc1Cl
64 | 117 to 119 | CCCc1c(OCCCCCC(=O)c2ccc(OC)c(OC)c2)ccc(C(=O)OC)c1O
65 | 102 to 123 | NCc1ccc(CO)cc1
66 | 139 to 142 | O=C1CCC(N2Cc3c(OCc4ccc(CN5CCn6nc(C(F)(F)F)nc6C5)cc4)cccc3C2=O)C(=O)N1 (stereo unspecified)
67 | 67 to 69 | Cc1cccc(Cl)c1OC1CN(C(=O)Cl)C1
68 | 136 | COCCCn1c2cc(Cl)ccc2n2c(C)nnc12
69 | 306 | CS(=O)(=O)c1cc(CCC(=O)O)cc(-c2nc(=O)c3ccccc3s2)n1
70 | 129 | OC1CSC(Oc2cccnc2-c2ccncc2)C(O)C1O (stereo unspecified)
71 | 116 to 118 | CN(CCCCOCC(=O)O)c1cnc(-c2ccc(F)cc2)c(-c2ccc(F)cc2)n1
72 | 94 | CCC(CC(Oc1ccccc1)C(=O)O)Oc1ccc(Cl)cc1 (stereo unspecified)

Row | melting point [°C] | Compound
73 | 184 to 187 | O=C(CCl)c1ccc2c(C(=O)CCl)ccc3c2c1CC3
74 | 244 to 247 | COc1ccc(-c2csc(Nc3ccc(C(F)(F)F)cn3)n2)cc1OC
75 | 160 to 164 | COC(=O)C[C@@H]1C[C@@H](COc2ccc(-c3ccc(C(=N)NC(=O)OCc4ccccc4)cc3)cc2)NC1=O
76 | 201 | COc1nc2ncnn2c(N2CCC(C)CC2)c1-c1ccc(C)cc1F
77 | 176 to 178 | COc1ccc2c(c1)OC(CNCCCOc1cc3ccccc3oc1=O)CO2 (stereo unspecified)
78 | 88.4 to 90.5 | COC(=O)Cc1ccc2c(c1)N(C)Cc1ccccc1C2=O
79 | 227 to 229 | CC1(C)CC(=O)C2=C(C1)NC1=C(C(=O)CC(C)(C)C1)C2c1cccc(-c2ccccc2)c1
80 | 231 to 235 | NC(=O)N1C(=O)C(C(=O)c2ccco2)c2ccc(F)cc21 (stereo unspecified)
81 | 139 to 140 | CC(C)(C)OC(=O)Nc1ccc2ccc(S(=O)(=O)N(Cc3ccccc3)Cc3ccccc3)cc2c1
82 | 64 to 66 | CC=CC(=O)c1ccc(CCCCNC(C)=O)cc1
83 | 160 to 162 | O=C(O)Cc1ccccc1CC(=O)Nc1cccc(/C=C/c2nc(C3CCC3)cs2)c1
84 | 82 to 84 | CCOc1c(C#CCO)cc(C(C)(C)C)cc1C(C)(C)C
85 | 75 to 77 | CC1(COc2ccc(OCCN3CC(COc4ccccc4)OC3=O)cc2)OCCO1 (stereo unspecified)
86 | 216 to 218 | O=S1(=O)NCN(C2CCCCCC2)c2ccc(Cl)cc21
87 | 157 to 158 | O=C1c2ccccc2C(=O)N1CCOc1ccncc1
88 | 186 to 192 | Clc1nc(-c2ccc3c(c2)CCO3)nc2ccccc12
89 | 158 to 160 | CC(C)(CC(O)(Cn1cc(Cl)c(=O)c2cnccc21)C(F)(F)F)c1cccc2c1OCC2 (stereo unspecified)
90 | 89 | Nc1cc(OCC2CC=CCC2)cc(N)n1 (stereo unspecified)
91 | 145 to 148 | COc1ccc2c(c1)CCC1C2CCC2(C)C(=O)CC(C)(C)C12 (stereo unspecified)
92 | 45 to 46 | CCCCCCCCCCc1nc(N(C)C)nc(OC)c1Br
93 | 134 | C=CCCC(O)=C(C#N)C(=O)Nc1ccc(Cl)c(C)c1
94 | 212 to 214 | NC(=O)N1Cc2ccccc2-c2ccccc2C1
95 | 220 to 222 | CN1Cc2ccc(NC(=O)N[C@@H]3c4cc(C#N)ccc4OC(C)(C)[C@H]3O)cc2C1

Row | Compound | melting point [°C]
96 | N#Cc1nn(-c2c(Cl)cc(C(F)(F)F)cc2Cl)c(N)c1-c1ccc(Cl)cc1 | 235 to 237
97 | CC(=Cc1ccc(Cl)cc1Cl)[N+](=O)[O-] | 75
98 | O=C1c2c(Cl)cccc2-n2cnc(-c3nc(C4CCCC4)no3)c2[C@@H]2CCCN12 | 177 to 178
99 | CCON=C(C)c1cccnc1 | 160 to 162
100 | O=C1c2c(Cl)cccc2-n2cnc(-c3nnc(-c4ccccc4)o3)c2[C@@H]2CCCN12 | 221 to 222
101 | CCC(c1cccc(Br)c1)c1c(O)c2ccccc2oc1=O (stereo unspecified) | 168 to 172
